Legend:
[1] = tested on: E. coli S30 extract (bacterial protein synthesis); assay: E. coli S30 extract coupled transcription-translation luciferase assay (inhibition of bacterial protein synthesis); format: biochemical; settings: class by IC50 or % inhibition @ 1 μM, read-out: S30 IC50 (μM/% inhib.)
Outline: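 Luminescent read-out of luciferase made from pBESTluc DNA by E. coli S30 extract after 1 h at 37 °C with compound in an 8-point 2-fold series. Background came from no-DNA reactions. Percent inhibition was calculated against water-only controls.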

[2] = tested on: P. aeruginosa (Pa); assay: Broth microdilution minimum inhibitory concentration (MIC); format: cell-based; settings: P. aeruginosa, growth medium with sodium bicarbonate; for MIC: Pseudomonas aeruginosa, read-out: Pa MIC + bicarb
Outline: (§1)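 Two-fold compound series, 8 points in triplicate; medium CAMHB ± NaHCO3 (6.25 or 25 mM final) or ± 0–50% heat-inactivated human serum; inoculum 5×10^4 CFU/well; growth-method 0.5 McFarland suspensions; modified CLSI M07-A9.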

[3] = tested on: A. baumannii (Ab); assay: as above; format: cell-based; settings: A. baumannii, growth medium with sodium bicarbonate; for MIC: Acinetobacter baumannii, read-out: Ab + bicarb MIC
Outline: as §1

[4] = tested on: S. aureus (Sa); assay: as above; format: cell-based; settings: S. aureus, growth medium with sodium bicarbonate; for MIC: Staphylococcus aureus, read-out: Sa + bicarb MIC
Outline: as §1

[5] = tested on: E. faecalis (Ef); assay: as above; format: cell-based; settings: E. faecalis, growth medium with sodium bicarbonate; for MIC: Enterococcus faecalis, read-out: Ef + bicarb MIC
Outline: as §1

[6] = tested on: E. coli (Ec); assay: as above; format: cell-based; settings: E. coli, growth medium with sodium bicarbonate; for MIC: Escherichia coli, read-out: E. coli + bicarb MIC
Outline: as §1

[7] = biological target: Rabbit Reticulocyte Lysate (eukaryotic protein synthesis); assay: Rabbit reticulocyte lysate luciferase assay (inhibition of eukaryotic protein synthesis); format: biochemical; settings: class by IC50 or % inhibition @ 1 μM, read-out: Rabbit reticulocyte IC50 (μM/% inhib.)
Outline: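 Compounds were tested in 8-point 2-fold dilution series for blocking luciferase synthesis in nuclease-treated rabbit reticulocyte lysate (30° C., 90 minutes). Luminescence read-out, corrected by no-RNA background, was expressed as % inhibition against water-only reactions.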

Row | Compound | IC50 [1] [µM] | MIC [2] [µg/mL] | MIC [3] [µg/mL] | MIC [4] [µg/mL] | MIC [5] [µg/mL] | MIC [6] [µg/mL] | IC50 [7] [µM] | Pa MIC + bicarb [2] | Ef + bicarb MIC [5] | Ab + bicarb MIC [3] | Sa + bicarb MIC [4] | E. coli + bicarb MIC [6]
1 | CC(Cc1ccc(-n2ccc(NC(=O)N3CCN(C(=O)C(C)(C)N)CC3)nc2=O)cc1)N1CCC(N)CC1 (stereo not drawn) [Compound 169] | < 0.5 | 8 to 32 | 8 to 32 | < 8 | < 8 | < 8 | > 1 | – | – | – | – | –
2 | CC(Cc1ccc(-n2ccc(NC(=O)N3CCN(C(=O)C(C)(C)N)CC3)nc2=O)cc1)N1CC[C@H](CN)C1 (stereo partly drawn) [Compound 170] | < 0.5 | – | > 32 | 8 to 32 | – | < 8 | > 1 | ++ (An MIC value (μg/mL) that is 8 μg/mL or greater and less than 32 μg/mL) | + (An MIC value (μg/mL) that is 32 μg/mL or greater) | – | – | –
3 | CC(Cc1ccc(-n2ccc(NC(=O)N3CCN(C(=O)C(C)(C)N)CC3)nc2=O)cc1)N[C@H]1CC[C@H](N)CC1 (stereo partly drawn) [Compound 171] | > 1 | > 32 | > 32 | 8 to 32 | > 32 | < 8 | > 1 | – | – | – | – | –
4 | CC(Cc1ccc(-n2ccc(NC(=O)N3CCN(C(=O)C(C)(C)N)CC3)nc2=O)cc1)N[C@@H]1CC[C@H](N)C1 (stereo partly drawn) [Compound 172] | < 0.5 | > 32 | > 32 | < 8 | < 8 | < 8 | > 1 | – | – | – | – | –
5 | CC(Cc1ccc(-n2ccc(NC(=O)N3CCN(C(=O)C(C)(C)N)CC3)nc2=O)cc1)N[C@@H]1CC[C@@H](N)C1 (stereo partly drawn) [Compound 173] | < 0.5 | > 32 | > 32 | < 8 | 8 to 32 | < 8 | > 1 | – | – | – | – | –
6 | CC(Cc1ccc(-n2ccc(NC(=O)N3CCN(C(=O)C(C)(C)N)CC3)nc2=O)cc1)N[C@H]1CC[C@@H](N)CC1 (stereo partly drawn) [Compound 174] | < 0.5 | > 32 | 8 to 32 | < 8 | < 8 | < 8 | > 1 | – | – | – | – | –
7 | CC(Cc1ccc(-n2ccc(NC(=O)N3CCN(C(=O)C(C)(C)N)CC3)nc2=O)cc1)N(C)[C@H]1CC[C@@H](N)CC1 (stereo partly drawn) [Compound 175] | < 0.5 | – | > 32 | < 8 | < 8 | < 8 | > 1 | ++ (An MIC value (μg/mL) that is 8 μg/mL or greater and less than 32 μg/mL) | – | – | – | –
8 | CC(Cc1ccc(-n2ccc(NC(=O)N3CCN(C(=O)C(C)(C)N)CC3)nc2=O)cc1)N(C)[C@H]1CC[C@@H](N)CC1 (stereo partly drawn) [Compound 176] | < 0.5 | – | – | – | – | – | > 1 | + (An MIC value (μg/mL) that is 32 μg/mL or greater) | +++ (An MIC value (μg/mL) that is less than 8 μg/mL) | + (An MIC value (μg/mL) that is 32 μg/mL or greater) | +++ (An MIC value (μg/mL) that is less than 8 μg/mL) | +++ (An MIC value (μg/mL) that is less than 8 μg/mL)
9 | CC(C)(N)C(=O)N1CCN(C(=O)Nc2ccn(-c3ccc(CCN[C@H]4CC[C@@H](N)CC4)cc3)c(=O)n2)CC1 [Compound 179] | < 0.5 | > 32 | > 32 | < 8 | 8 to 32 | < 8 | > 1 | – | – | – | – | –
10 | CC(C)(N)C(=O)N1CCN(C(=O)Nc2ccn(-c3ccc(CCN[C@H]4CC[C@H](N)CC4)cc3)c(=O)n2)CC1 [Compound 180] | 0.5 to 1 | > 32 | > 32 | 8 to 32 | > 32 | < 8 | > 1 | – | – | – | – | –
11 | CC(C)(N)C(=O)N1CCN(C(=O)Nc2ccn(-c3ccc(CCN[C@@H]4CC[C@H](N)C4)cc3)c(=O)n2)CC1 [Compound 181] | < 0.5 | > 32 | > 32 | < 8 | 8 to 32 | < 8 | > 1 | – | – | – | – | –
12 | CC(CN1CC(N)C1)Oc1ccc(-n2ccc(NC(=O)N3CCN(C(=O)C(C)(C)N)CC3)nc2=O)cc1 (stereo not drawn) [Compound 182] | > 1 | > 32 | > 32 | > 32 | > 32 | 8 to 32 | > 1 | – | – | – | – | –
13 | CC(CNC1CNC1)Oc1ccc(-n2ccc(NC(=O)N3CCN(C(=O)C(C)(C)N)CC3)nc2=O)cc1 (stereo not drawn) [Compound 183] | > 1 | > 32 | > 32 | > 32 | > 32 | > 32 | > 1 | – | – | – | – | –
14 | CC(CN1CC[C@H](CN)C1)Oc1ccc(-n2ccc(NC(=O)N3CCN(C(=O)C(C)(C)N)CC3)nc2=O)cc1 (stereo partly drawn) [Compound 184] | < 0.5 | > 32 | > 32 | < 8 | 8 to 32 | < 8 | > 1 | – | – | – | – | –
15 | CC(CN1CC[C@@H](CN)C1)Oc1ccc(-n2ccc(NC(=O)N3CCN(C(=O)C(C)(C)N)CC3)nc2=O)cc1 (stereo partly drawn) [Compound 185] | < 0.5 | > 32 | > 32 | < 8 | 8 to 32 | < 8 | > 1 | – | – | – | – | –
16 | CC(COc1ccc(-n2ccc(NC(=O)N3CCN(C(=O)C(C)(C)N)CC3)nc2=O)cc1)N1CC[C@@H](CN)C1 (stereo partly drawn) [Compound 186] | < 0.5 | > 32 | > 32 | < 8 | 8 to 32 | < 8 | > 1 | – | – | – | – | –
17 | CC(C)(N)C(=O)N1CCN(C(=O)Nc2ccn(-c3ccc(OCCN4CCCC(N)CC4)cc3)c(=O)n2)CC1 (stereo not drawn) [Compound 187] | < 0.5 | > 32 | 8 to 32 | < 8 | < 8 | < 8 | > 1 | – | – | – | – | –
18 | CC(C)(N)C(=O)N1CCN(C(=O)Nc2ccn(-c3ccc(OCCN4CCCC(CN)C4)cc3)c(=O)n2)CC1 (stereo not drawn) [Compound 188] | < 0.5 | > 32 | > 32 | < 8 | < 8 | < 8 | > 1 | – | – | – | – | –
19 | CC(COc1ccc(-n2ccc(NC(=O)N3CCN(C(=O)C(C)(C)N)CC3)nc2=O)cc1)N1CC[C@H](CN)C1 (stereo partly drawn) [Compound 190] | < 0.5 | > 32 | > 32 | < 8 | < 8 | < 8 | > 1 | – | – | – | – | –
20 | CC(COc1ccc(-n2ccc(NC(=O)N3CCN(C(=O)C(C)(C)N)CC3)nc2=O)cc1)N1CCCC(N)CC1 (stereo not drawn) [Compound 191] | 0.5 to 1 | > 32 | > 32 | < 8 | 8 to 32 | < 8 | > 1 | – | – | – | – | –
21 | NC1CCCN(CCc2ccc(-n3ccc(NC(=O)N4CCC5(CC4)CNC5)nc3=O)cc2)CC1 (stereo not drawn) [Compound 192] | > 1 | > 32 | > 32 | < 8 | 8 to 32 | < 8 | > 1 | – | – | – | – | –
22 | NC1CCCN(CCc2ccc(-n3ccc(NC(=O)N4CC5(CC(N)C5)C4)nc3=O)cc2)CC1 (stereo not drawn) [Compound 193] | < 0.5 | > 32 | > 32 | < 8 | 8 to 32 | < 8 | > 1 | – | – | – | – | –
23 | NCC1CN(C(=O)Nc2ccn(-c3ccc(CCN4CCCC(N)CC4)cc3)c(=O)n2)C1 (stereo not drawn) [Compound 194] | 0.5 to 1 | > 32 | > 32 | > 32 | > 32 | < 8 | > 1 | – | – | – | – | –
24 | NC1CCCN(CCc2ccc(-n3ccc(NC(=O)N4CC5(CCC5N)C4)nc3=O)cc2)CC1 (stereo not drawn) [Compound 195] | 0.5 to 1 | > 32 | > 32 | 8 to 32 | > 32 | > 32 | > 1 | – | – | – | – | –
25 | CC(C)(N)C(=O)N1CCN(C(=O)Nc2ccn(-c3ccc(CCN4CCC(N)CC4)cc3)c(=O)n2)CC1 [Compound 198] | < 0.5 | > 32 | > 32 | 8 to 32 | 8 to 32 | < 8 | > 1 | – | – | – | – | –
26 | C[C@@](N)(CO)C(=O)N1CCN(C(=O)Nc2ccn(-c3ccc(CCN4CCC(N)CC4)cc3)c(=O)n2)CC1 [Compound 199] | < 0.5 | > 32 | > 32 | 8 to 32 | > 32 | < 8 | > 1 | – | – | – | – | –
27 | CCOC(=O)C1(CN)CN(Cc2ccc(-n3ccc(NC(=O)N4CCN(C(=O)C(C)(C)N)CC4)nc3=O)cc2)C1 [Compound 201] | > 1 | > 32 | > 32 | > 32 | > 32 | > 32 | > 1 | – | – | – | – | –
